Biological target: PARP7 (Homo sapiens (Human), UniProt Q7Z3E1)
Test: In vitro enzymology experiment of PARP7 (enzymatic inhibition)
Format: biochemical
Experimental: II. In Vitro Enzymology Experiment of PARP2, 3, 5A, 5B, 7, 12, and 15
1. Preparation of 384-well histone-coated plate: 25 μL of histone solution was added to each well, and the plate was incubated overnight at 4° C.
2. Preparation of PBST buffer, blocking buffer, and assay buffer
3. The 384-well histone-coated plate was washed three times with PBST buffer. The plate was blocked by 50 μL of blocking buffer for 1 hour at room temperature. The plate was then washed three times with PBST buffer.
2000× compound was prepared in a 96-well source plate. 50 nL of the compound was transferred from the source plate to a 96-well intermediate plate, and 39.95 μL of assay buffer was added to each well. The plate was shaken well and centrifuged at 1000 rpm for 1 minute.
5 μL of compound DMSO solution was transferred to each well.
An enzyme mixture was incubated at 25° C. for 10 minutes.
10 μL of the enzyme mixture was added, and incubated with the compound at room temperature for 10 minutes.
10 μL of assay buffer was added to the negative control well of the assay plate.
The plate was then washed three times with PBST buffer.
25 μL of Stre-HRP was added.
The plate was incubated at room temperature for 1 hour and washed three times with PBS buffer.
25 μL of QuantaRed Enhancer mix was added. The plate was incubated for 10 minutes.
2.5 μL of QuantaRed Stop Solution was added to terminate the peroxidase reaction, and the plate was shaken for 10 to 30 seconds.
7. Paradigm was used to read the plate immediately to detect the readings at Ex550/Em620.
Using equation (1) to fit the data in Excel to obtain inhibition values
Using equation (2) to fit the data in XL-Fit to obtain IC50 values
Y is the percentage of inhibition, and X is the compound concentration.

Sequence of PARP7 (Q7Z3E1 whole entry): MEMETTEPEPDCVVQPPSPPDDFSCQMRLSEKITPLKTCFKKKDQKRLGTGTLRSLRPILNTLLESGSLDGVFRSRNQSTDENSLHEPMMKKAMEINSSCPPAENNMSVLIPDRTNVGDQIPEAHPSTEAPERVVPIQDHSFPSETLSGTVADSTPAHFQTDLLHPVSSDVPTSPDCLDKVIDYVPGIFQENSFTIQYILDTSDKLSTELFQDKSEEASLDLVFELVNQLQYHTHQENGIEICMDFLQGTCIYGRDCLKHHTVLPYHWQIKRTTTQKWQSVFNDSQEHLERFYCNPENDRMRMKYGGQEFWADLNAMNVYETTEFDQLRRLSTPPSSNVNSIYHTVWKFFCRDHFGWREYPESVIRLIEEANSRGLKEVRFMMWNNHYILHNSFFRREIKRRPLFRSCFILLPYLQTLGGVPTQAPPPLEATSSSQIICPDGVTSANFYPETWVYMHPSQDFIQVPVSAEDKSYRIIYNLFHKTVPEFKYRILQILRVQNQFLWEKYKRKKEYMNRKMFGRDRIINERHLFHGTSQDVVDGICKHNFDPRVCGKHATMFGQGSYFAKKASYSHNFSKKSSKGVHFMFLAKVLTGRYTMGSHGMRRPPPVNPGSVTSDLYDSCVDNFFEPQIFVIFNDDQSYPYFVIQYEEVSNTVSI

| IC50 [nM] | SMILES |
| --- | --- |
| 0.75 | Cc1c(C[C@H](C)OC(=O)N2CCN(c3ncc(C(F)(F)F)cn3)CC2)c[nH]c(=O)c1C(F)(F)F [Example 81, (S)-1-(4-Methyl-6-oxo-5-(trifluoromethyl)-1,6-dihydropyridin-3-yl)propan-2-yl 4-(5-(trifluoromethyl)pyrimidin-2-yl)piperazine-1-carboxylate] |
| 1.4 | C[C@@H](Cc1c[nH]c(=O)c(C(F)(F)F)c1)OC(=O)N1CCN(c2ncc(C(F)(F)F)cn2)C[C@@H]1CO [Example 78, (S)-1-(6-Oxo-5-(trifluoromethyl)-1,6-dihydropyridin-3-yl)propan-2-yl (R)-2-(hydroxymethyl)-4-(5-(trifluoromethyl)pyrimidin-2-yl)piperazine-1-carboxylate] |
| 1.5 | C[C@@H](Cc1c[nH]c(=O)c(C(F)(F)F)c1)OC(=O)N1CCN(c2ncc(C(F)(F)F)cn2)[C@H](CO)C1 [Example 80, (S)-1-(6-Oxo-5-(trifluoromethyl)-1,6-dihydropyridin-3-yl)propan-2-yl (S)-3-(hydroxymethyl)-4-(5-(trifluoromethyl)pyrimidin-2-yl)piperazine-1-carboxylate] |
| 0.76 | Cc1cc(CC(C)OC(=O)N2CCN(c3ncc(C(F)(F)F)cn3)CC2)c[nH]c1=O (centres unmarked) [Example 67, 1-(5-Methyl-6-oxo-1,6-dihydropyridin-3-yl)propan-2-yl 4-(5-(trifluoromethyl)pyrimidin-2-yl)piperazine-1-carboxylate] |
| 0.52 | C[C@@H](Cc1c[nH]c(=O)c(C(F)(F)F)c1)OC(=O)N1CCN(c2ncc(C(F)F)cn2)CC1 [Example 50, (S)-1-(6-Oxo-5-(trifluoromethyl)-1,6-dihydropyridin-3-yl)propan-2-yl 4-(5-(difluoromethyl)pyrimidin-2-yl)piperazine-1-carboxylate] |
| 0.5 | CNC(=O)c1cnc(N2CCN(C(=O)O[C@@H](C)Cc3c[nH]c(=O)c(C(F)(F)F)c3)CC2)nc1 [Example 87, (S)-1-(6-Oxo-5-(trifluoromethyl)-1,6-dihydropyridin-3-yl)propan-2-yl 4-(5-(methylcarbamoyl)pyrimidin-2-yl)piperazine-1-carboxylate] |
| 2.09 | CC(Cc1c[nH]c(=O)c(C(F)(F)F)c1)OC(=O)N1CCN(c2ccc(C(F)(F)F)cn2)CC1 (centres unmarked) [Example 62, 1-(6-Oxo-5-(trifluoromethyl)-1,6-dihydropyridin-3-yl)propan-2-yl 4-(5-(trifluoromethyl)pyridin-2-yl)piperazine-1-carboxylate] |
| 3.6 | O=C(CCOCCn1c(=O)ccc2c(=O)[nH]ncc21)N1CCN(c2ncc(C(F)(F)F)cn2)CC1 [Example 22, 1-(2-(3-Oxo-3-(4-(5-(trifluoromethyl)pyrimidin-2-yl)piperazin-1-yl)propoxy)ethyl)pyrido[2,3-d]pyridazine-2,5(1H,6H)-dione] |
| 0.86 | C[C@@H](Cc1c[nH]c(=O)c(C(F)(F)F)c1)OC(=O)N1CCN(c2ccc(C(F)(F)F)cc2)CC1 [Example 97, (S)-1-(6-Oxo-5-(trifluoromethyl)-1,6-dihydropyridin-3-yl)propan-2-yl 4-(4-(trifluoromethyl)phenyl)piperazine-1-carboxylate] |
| 0.7 | O=C(c1cc(Cc2c[nH]c(=O)c(C(F)(F)F)c2)ccc1F)N1CCN(c2ncc(C(F)(F)F)cn2)CC1 [Example 40, 5-(4-Fluoro-3-(4-(5-(trifluoromethyl)pyrimidin-2-yl)piperazine-1-carbonyl)benzyl)-3-(trifluoromethyl)pyridin-2(1H)-one] |
| 0.75 | Cc1cnc(N2C[C@@H](C)N(C(=O)OCCc3c[nH]c(=O)c(C(F)(F)F)c3)[C@@H](C)C2)nc1 [Example 163, 2-(6-Oxo-5-(trifluoromethyl)-1,6-dihydropyridin-3-yl)ethyl (2R,6S)-2,6-dimethyl-4-(5-methylpyrimidin-2-yl)piperazine-1-carboxylate] |
| 0.67 | C[C@@H](Cc1c[nH]c(=O)c(C(F)(F)F)c1)OC(=O)N1CCN(c2cnc(C#N)cn2)CC1 [Example 76, (S)-1-(6-Oxo-5-(trifluoromethyl)-1,6-dihydropyridin-3-yl)propan-2-yl 4-(5-cyanopyrazin-2-yl)piperazine-1-carboxylate] |
| 1.3 | C[C@@H]1CN(C(=O)OCCc2c[nH]c(=O)c(C(F)(F)F)c2)C[C@H](C)N1c1ncc(C2CC2)cn1 [Example 181, 2-(6-Oxo-5-(trifluoromethyl)-1,6-dihydropyridin-3-yl)ethyl (3S,5R)-4-(5-cyclopropylpyrimidin-2-yl)-3,5-dimethylpiperazine-1-carboxylate] |
| 0.8 | CC(Cc1c[nH]c(=O)c(C(F)(F)F)c1)OC(=O)N1CCN(c2ncc(Cl)cn2)CC1 (centres unmarked) [Example 44, 1-(6-Oxo-5-(trifluoromethyl)-1,6-dihydropyridin-3-yl)propan-2-yl 4-(5-chloropyrimidin-2-yl)piperazine-1-carboxylate] |
| 1.1 | C[C@@H]1CN(c2ncc(C3CC3)cn2)C[C@H](C)N1C(=O)OCCc1c[nH]c(=O)c(C(F)(F)F)c1 [Example 151, 2-(6-Oxo-5-(trifluoromethyl)-1,6-dihydropyridin-3-yl)ethyl (2R,6S)-4-(5-cyclopropylpyrimidin-2-yl)-2,6-dimethylpiperazine-1-carboxylate] |
| 0.65 | C[C@H]1CN(C(=O)OCCc2c[nH]c(=O)c(C(F)(F)F)c2)CCN1c1ncc(C(F)(F)F)cn1 [Example 113, 2-(6-Oxo-5-(trifluoromethyl)-1,6-dihydropyridin-3-yl)ethyl (S)-3-methyl-4-(5-(trifluoromethyl)pyrimidin-2-yl)piperazine-1-carboxylate] |
| 0.6 | C[C@@H](Cc1c[nH]c(=O)c(C(F)(F)F)c1)OC(=O)N1CCN(c2ccc(C(F)(F)F)cn2)CC1 [Example 86, (S)-1-(6-Oxo-5-(trifluoromethyl)-1,6-dihydropyridin-3-yl)propan-2-yl 4-(5-(trifluoromethyl)pyridin-2-yl)piperazine-1-carboxylate] |
| 0.93 | O=C(OCCc1c[nH]c(=O)c(C(F)(F)F)c1)N1CCN(c2ncc(C3CCCCC3)cn2)CC1 [Example 118, 2-(6-Oxo-5-(trifluoromethyl)-1,6-dihydropyridin-3-yl)ethyl 4-(5-cyclohexylpyrimidin-2-yl)piperazine-1-carboxylate] |
| 5.6 | Cc1cnc(N2C[C@H](C)N(C(=O)OCCc3c[nH]c(=O)c(C(F)(F)F)c3)[C@@H](C)C2)nc1 [Example 164, 2-(6-Oxo-5-(trifluoromethyl)-1,6-dihydropyridin-3-yl)ethyl (2S,6S)-2,6-dimethyl-4-(5-methylpyrimidin-2-yl)piperazine-1-carboxylate] |
| 1.99 | CC(Cc1c[nH]c(=O)c(C(F)(F)F)c1)OC(=O)N1CCN(c2ccc(C#N)cn2)CC1 (centres unmarked) [Example 64, 1-(6-Oxo-5-(trifluoromethyl)-1,6-dihydropyridin-3-yl)propan-2-yl 4-(5-cyanopyridin-2-yl)piperazine-1-carboxylate] |
| 0.9 | C[C@@H]1CN(C(=O)O[C@@H](C)Cc2c[nH]c(=O)c(C(F)(F)F)c2)C[C@@H](C)N1c1ncc(C(F)(F)F)cn1 [Example 157, (S)-1-(6-Oxo-5-(trifluoromethyl)-1,6-dihydropyridin-3-yl)propan-2-yl (3R,5R)-3,5-dimethyl-4-(5-(trifluoromethyl)pyrimidin-2-yl)piperazine-1-carboxylate] |
| 0.95 | CC(Cc1c[nH]c(=O)c2ccccc12)OC(=O)N1CCN(c2ncc(C(F)(F)F)cn2)CC1 (centres unmarked) [Example 102, 1-(1-Oxo-1,2-dihydroisoquinolin-4-yl)propan-2-yl 4-(5-(trifluoromethyl)pyrimidin-2-yl)piperazine-1-carboxylate] |
| 0.9 | O=C(Oc1ccc(F)c(-c2c[nH]c(=O)c(C(F)(F)F)c2)c1)N1CCN(c2ncc(C(F)(F)F)cn2)CC1 [Example 139, 4-Fluoro-3-(6-oxo-5-(trifluoromethyl)-1,6-dihydropyridin-3-yl)phenyl 4-(5-(trifluoromethyl)pyrimidin-2-yl)piperazine-1-carboxylate] |
| 0.83 | C[C@@H](Cc1c[nH]c(=O)c(C(F)(F)F)c1)OC(=O)N1CCN(c2ncc(CO)cn2)CC1 [Example 75, (S)-1-(6-Oxo-5-(trifluoromethyl)-1,6-dihydropyridin-3-yl)propan-2-yl 4-(5-(hydroxymethyl)pyrimidin-2-yl)piperazine-1-carboxylate] |
| 1.5 | N#Cc1ccc(N2CCN(C(=O)OCCc3c[nH]c(=O)c(C(F)(F)F)c3)CC2)nc1 [Example 144, 2-(6-Oxo-5-(trifluoromethyl)-1,6-dihydropyridin-3-yl)ethyl 4-(5-cyanopyridin-2-yl)piperazine-1-carboxylate] |
| 1.4 | C[C@@H]1CN(C(=O)O[C@@H](C)Cc2c[nH]c(=O)c(C(F)(F)F)c2)[C@@H](C)CN1c1ncc(C2CC2)cn1 [Example 178, (S)-1-(6-Oxo-5-(trifluoromethyl)-1,6-dihydropyridin-3-yl)propan-2-yl (2S,5R)-4-(5-cyclopropylpyrimidin-2-yl)-2,5-dimethylpiperazine-1-carboxylate] |

— patent US20240351997A1, “NOVEL PARP7 INHIBITOR AND USE THEREOF” (SHANGHAI QILU PHARMACEUTICAL RESEARCH AND DEVELOPMENT …, priority 2021, published 2024)
